In publication PMC9743148 (Annals of oncology : official journal of the European …, 2020):

Tested on: patients with advanced solid tumors
Experiment: Treatment-emergent adverse events
Type: in vivo, human
Conditions: Combined q.d. cohorts (n = 44)

C=CC(=O)N1CC[C@H](n2nc(C#Cc3cc(OC)cc(OC)c3)c3c(N)ncnc32)C1 [futibatinib]
ALT increased TEAE, Any grade: 11 (25) n (%) | ALT increased TEAE, Grade 1: 4 (9) n (%) | ALT increased TEAE, Grade 2: 4 (9) n (%) | ALT increased TEAE, Grade 3: 3 (7) n (%) | ALT increased TEAE, Grade 4: 0 (0) n (%) | AST increased TEAE, Any grade: 11 (25) n (%) | AST increased TEAE, Grade 1: 4 (9) n (%) | AST increased TEAE, Grade 2: 5 (11) n (%) | AST increased TEAE, Grade 3: 2 (5) n (%) | AST increased TEAE, Grade 4: 0 (0) n (%) | Abdominal pain TEAE, Any grade: 6 (14) n (%) | Abdominal pain TEAE, Grade 1: 1 (2) n (%) | Abdominal pain TEAE, Grade 2: 4 (9) n (%) | Abdominal pain TEAE, Grade 3: 1 (2) n (%) | Abdominal pain TEAE, Grade 4: 0 (0) n (%) | Alopecia TEAE, Any grade: 6 (14) n (%) | Alopecia TEAE, Grade 1: 6 (14) n (%) | Alopecia TEAE, Grade 2: 0 (0) n (%) | Alopecia TEAE, Grade 3: 0 (0) n (%) | Alopecia TEAE, Grade 4: 0 (0) n (%) | Anemia TEAE, Any grade: 9 (20) n (%) | Anemia TEAE, Grade 1: 1 (2) n (%) | Anemia TEAE, Grade 2: 6 (14) n (%) | Anemia TEAE, Grade 3: 2 (5) n (%) | Anemia TEAE, Grade 4: 0 (0) n (%) | Any TEAE, Any grade: 44 (100) n (%) | Any TEAE, Grade 1: 5 (11) n (%) | Any TEAE, Grade 2: 11 (25) n (%) | Any TEAE, Grade 3: 21 (48) n (%) | Any TEAE, Grade 4: 3 (7) n (%) | Any treatment-related AE, Any grade: 41 (93) n (%) | Any treatment-related AE, Grade 1: 13 (30) n (%) | Any treatment-related AE, Grade 2: 11 (25) n (%) | Any treatment-related AE, Grade 3: 16 (36) n (%) | Any treatment-related AE, Grade 4: 1 (2) n (%) | Asthenia TEAE, Any grade: 9 (20) n (%) | Asthenia TEAE, Grade 1: 3 (7) n (%) | Asthenia TEAE, Grade 2: 6 (14) n (%) | Asthenia TEAE, Grade 3: 0 (0) n (%) | Asthenia TEAE, Grade 4: 0 (0) n (%) | Back pain TEAE, Any grade: 5 (11) n (%) | Back pain TEAE, Grade 1: 3 (7) n (%) | Back pain TEAE, Grade 2: 2 (5) n (%) | Back pain TEAE, Grade 3: 0 (0) n (%) | Back pain TEAE, Grade 4: 0 (0) n (%) | Constipation TEAE, Any grade: 18 (41) n (%) | Constipation TEAE, Grade 1: 13 (30) n (%) | Constipation TEAE, Grade 2: 4 (9) n (%) | Constipation TEAE, Grade 3: 1 (2) n (%) | Constipation TEAE, Grade 4: 0 (0) n (%) | Cough TEAE, Any grade: 5 (11) n (%) | Cough TEAE, Grade 1: 5 (11) n (%) | Cough TEAE, Grade 2: 0 (0) n (%) | Cough TEAE, Grade 3: 0 (0) n (%) | Cough TEAE, Grade 4: 0 (0) n (%) | Decreased appetite TEAE, Any grade: 7 (16) n (%) | Decreased appetite TEAE, Grade 1: 5 (11) n (%) | Decreased appetite TEAE, Grade 2: 2 (5) n (%) | Decreased appetite TEAE, Grade 3: 0 (0) n (%) | Decreased appetite TEAE, Grade 4: 0 (0) n (%) | Diarrhea TEAE, Any grade: 15 (34) n (%) | Diarrhea TEAE, Grade 1: 9 (20) n (%) | Diarrhea TEAE, Grade 2: 5 (11) n (%) | Diarrhea TEAE, Grade 3: 1 (2) n (%) | Diarrhea TEAE, Grade 4: 0 (0) n (%) | Dose reduction because of TEAE, Any grade: 8 (18) n (%) | Dose reduction because of TEAE, Grade 1: 0 (0) n (%) | Dose reduction because of TEAE, Grade 2: 1 (2) n (%) | Dose reduction because of TEAE, Grade 3: 6 (14) n (%) | Dose reduction because of TEAE, Grade 4: 1 (2) n (%) | Dosing delay/interruption because of TEAE, Any grade: 26 (59) n (%) | Dosing delay/interruption because of TEAE, Grade 1: 1 (2) n (%) | Dosing delay/interruption because of TEAE, Grade 2: 9 (20) n (%) | Dosing delay/interruption because of TEAE, Grade 3: 16 (36) n (%) | Dosing delay/interruption because of TEAE, Grade 4: 0 (0) n (%) | Dry eye TEAE, Any grade: 5 (11) n (%) | Dry eye TEAE, Grade 1: 4 (9) n (%) | Dry eye TEAE, Grade 2: 1 (2) n (%) | Dry eye TEAE, Grade 3: 0 (0) n (%) | Dry eye TEAE, Grade 4: 0 (0) n (%) | Dry mouth TEAE, Any grade: 11 (25) n (%) | Dry mouth TEAE, Grade 1: 10 (23) n (%) | Dry mouth TEAE, Grade 2: 1 (2) n (%)
